Measured values from ChEMBL document CHEMBL1201862, “PubChem BioAssay data set” (2004).
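96-well plates; 48 h exposure; 5 concentrations. Endpoints by linear interpolation between flanking doses. Not reached: highest tested concentration assigned. GI50: concentration for 50% inhibition of growth.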 Calls of active or inactive are those of the source. Rule as the data show it: active = GI50 up to about 1.1 µM and inactive = higher.

Assays:
Experiment in all cases: NCI anticancer screen, dose series, 48 h
HT-29 = system: HT-29
OVCAR-5 = system: OVCAR-5
KM12 = system: KM12
CAKI-1 = system: CAKI-1
EKVX = system: EKVX
NCI/ADR-RES = system: NCI/ADR-RES
SK-MEL-5 = system: SK-MEL-5
PC-3 = system: PC-3
SN12C = system: SN12C
IGROV-1 = system: IGROV-1
A498 = system: A498
Hs-578T = system: Hs-578T
SF-295 = system: SF-295
NCI-H522 = system: NCI-H522
SF-539 = system: SF-539

Measured: GI50

COc1ccc(Nc2nc3ccc(C(F)(F)F)cc3nc2C(=O)O)cc1OC
inactive: HT-29 38.4 µM | OVCAR-5 47 µM | KM12 16.9 µM | CAKI-1 39.5 µM | EKVX 36.2 µM | NCI/ADR-RES 20.2 µM | SK-MEL-5 20.1 µM | PC-3 26.5 µM | SN12C 34.9 µM | IGROV-1 34.3 µM | A498 27.9 µM | Hs-578T 38.6 µM | SF-295 24 µM | NCI-H522 25.8 µM

O=[N+]([O-])c1cccc(-c2nc(-c3ccccc3)c(-c3ccccc3)[nH]2)c1
inactive: OVCAR-5 > 100 µM | CAKI-1 > 100 µM | EKVX > 100 µM | NCI/ADR-RES > 100 µM | SK-MEL-5 > 100 µM | SF-539 > 100 µM | PC-3 > 100 µM | SN12C > 100 µM | IGROV-1 > 100 µM | A498 > 100 µM | Hs-578T > 100 µM | SF-295 > 100 µM | NCI-H522 > 100 µM

NC12c3c4cccc3Oc3cccc(c31)Oc1cccc(c12)O4
inactive: HT-29 > 50 µM | OVCAR-5 > 50 µM | KM12 > 50 µM | CAKI-1 > 50 µM | EKVX > 50 µM | NCI/ADR-RES > 50 µM | SF-539 > 50 µM | PC-3 > 50 µM | SN12C > 50 µM | IGROV-1 > 50 µM | A498 > 50 µM | Hs-578T 31.3 µM | SF-295 > 50 µM | NCI-H522 17.7 µM

Cc1cc(C)n(C2OC(CO)C(O)C(O)C2O)c(=S)c1C#N (centres undefined)
inactive: HT-29 > 100 µM | OVCAR-5 > 100 µM | KM12 > 100 µM | CAKI-1 > 100 µM | NCI/ADR-RES > 100 µM | SK-MEL-5 > 100 µM | SF-539 > 100 µM | PC-3 > 100 µM | SN12C > 100 µM | IGROV-1 > 100 µM | A498 > 100 µM | Hs-578T > 100 µM | SF-295 > 100 µM | NCI-H522 > 100 µM

Cc1ccc(SCN2CCCCC2)cc1.O=C(Cl)c1ccc([N+](=O)[O-])cc1
inactive: HT-29 13.2 µM | OVCAR-5 10.7 µM | KM12 10.8 µM | CAKI-1 8.87 µM | EKVX 11.8 µM | NCI/ADR-RES 14 µM | SK-MEL-5 2.78 µM | PC-3 12.2 µM | SN12C 4.31 µM | IGROV-1 3.3 µM | A498 2.76 µM | Hs-578T 10.4 µM | SF-295 16 µM | NCI-H522 1.92 µM
